Test results as given in the supplement of paper PMC12463676, “Small-molecule dissolution of stress granules by redox modulation benefits ALS models” (Nature Chemical Biology, 2025).

Legend:
[1] = compound: NC(=O)CCCCC1CCSS1 [lipoamide]; assay: thermal stability z-score vs DMSO; higher = more thermally stabilized by treatment; conditions: HeLa, lipoamide concentration 100 µM
Description: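 Cellular thermal proteome profiling in HeLa cells. Cells were treated with 100 µM lipoamide for 1 h, with or without 1 mM arsenate for a further 1 h, then heated to ten temperatures (37-66.3 °C), and soluble protein was quantified by TMT mass spectrometry relative to 0.1% DMSO controls. The thermal stability score (sum of log2 fold changes minus the abundance score) was transformed to a z-score; mean of n = 3 experiments.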

[2] = compound: O=[As]([O-])(O)O.[K+] [potassium arsenate]; assay: as above; conditions: HeLa; arsenate concentration 1 mM
Description: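 Cellular thermal proteome profiling in HeLa cells treated with 1 mM arsenate for 1 h (DMSO pretreatment), heated to ten temperatures (37-66.3 °C). Soluble protein was quantified by TMT mass spectrometry relative to DMSO controls; the thermal stability score was transformed to a z-score; mean of n = 3 experiments.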

[3] = arsenate co-treatment: 1 mM arsenate 1 h
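Note: each temperature applied for 3 min, abundance score taken as mean log2 fold change at the two lowest temperatures, z-score obtained by mean subtraction and division by SD.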

UniProt Q9NWX6, sequence (Q9NWX6 whole entry): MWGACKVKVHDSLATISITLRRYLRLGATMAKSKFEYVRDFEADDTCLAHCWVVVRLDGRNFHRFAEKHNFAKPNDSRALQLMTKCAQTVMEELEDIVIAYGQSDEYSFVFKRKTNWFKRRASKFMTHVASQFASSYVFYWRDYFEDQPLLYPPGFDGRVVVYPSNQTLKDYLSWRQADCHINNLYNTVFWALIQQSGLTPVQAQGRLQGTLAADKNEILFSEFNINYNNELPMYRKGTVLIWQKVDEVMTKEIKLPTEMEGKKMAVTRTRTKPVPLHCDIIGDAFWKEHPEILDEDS
UniProt P15735, sequence (P15735 whole entry): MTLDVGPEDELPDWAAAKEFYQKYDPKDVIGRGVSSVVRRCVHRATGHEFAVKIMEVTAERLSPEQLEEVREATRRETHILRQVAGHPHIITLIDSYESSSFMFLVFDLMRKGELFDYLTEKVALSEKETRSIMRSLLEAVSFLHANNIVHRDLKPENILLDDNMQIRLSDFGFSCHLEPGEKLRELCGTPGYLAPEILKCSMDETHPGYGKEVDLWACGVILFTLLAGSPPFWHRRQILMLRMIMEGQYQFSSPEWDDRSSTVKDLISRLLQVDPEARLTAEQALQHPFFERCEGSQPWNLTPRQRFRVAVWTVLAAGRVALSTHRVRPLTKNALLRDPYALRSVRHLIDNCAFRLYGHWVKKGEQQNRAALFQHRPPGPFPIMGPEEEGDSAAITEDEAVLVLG
UniProt P15509, sequence (P15509 whole entry): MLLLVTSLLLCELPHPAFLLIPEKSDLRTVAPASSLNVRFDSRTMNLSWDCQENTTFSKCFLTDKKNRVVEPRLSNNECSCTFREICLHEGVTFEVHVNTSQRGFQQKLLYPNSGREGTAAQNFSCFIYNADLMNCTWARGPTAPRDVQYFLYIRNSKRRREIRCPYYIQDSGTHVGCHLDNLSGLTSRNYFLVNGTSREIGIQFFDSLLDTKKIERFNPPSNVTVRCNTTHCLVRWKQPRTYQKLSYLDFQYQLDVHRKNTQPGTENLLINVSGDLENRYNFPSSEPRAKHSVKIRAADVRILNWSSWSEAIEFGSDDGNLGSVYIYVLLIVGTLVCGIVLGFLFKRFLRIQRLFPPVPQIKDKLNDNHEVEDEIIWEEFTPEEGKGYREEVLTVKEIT
UniProt Q96BQ5, sequence (Q96BQ5 whole entry): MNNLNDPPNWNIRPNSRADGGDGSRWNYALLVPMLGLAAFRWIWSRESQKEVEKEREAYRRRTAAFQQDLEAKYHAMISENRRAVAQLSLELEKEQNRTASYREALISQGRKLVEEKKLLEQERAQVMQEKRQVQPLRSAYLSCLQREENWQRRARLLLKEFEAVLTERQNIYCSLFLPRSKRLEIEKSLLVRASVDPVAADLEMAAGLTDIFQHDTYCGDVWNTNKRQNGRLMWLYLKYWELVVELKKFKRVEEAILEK
UniProt Q14694, sequence (Q14694 whole entry): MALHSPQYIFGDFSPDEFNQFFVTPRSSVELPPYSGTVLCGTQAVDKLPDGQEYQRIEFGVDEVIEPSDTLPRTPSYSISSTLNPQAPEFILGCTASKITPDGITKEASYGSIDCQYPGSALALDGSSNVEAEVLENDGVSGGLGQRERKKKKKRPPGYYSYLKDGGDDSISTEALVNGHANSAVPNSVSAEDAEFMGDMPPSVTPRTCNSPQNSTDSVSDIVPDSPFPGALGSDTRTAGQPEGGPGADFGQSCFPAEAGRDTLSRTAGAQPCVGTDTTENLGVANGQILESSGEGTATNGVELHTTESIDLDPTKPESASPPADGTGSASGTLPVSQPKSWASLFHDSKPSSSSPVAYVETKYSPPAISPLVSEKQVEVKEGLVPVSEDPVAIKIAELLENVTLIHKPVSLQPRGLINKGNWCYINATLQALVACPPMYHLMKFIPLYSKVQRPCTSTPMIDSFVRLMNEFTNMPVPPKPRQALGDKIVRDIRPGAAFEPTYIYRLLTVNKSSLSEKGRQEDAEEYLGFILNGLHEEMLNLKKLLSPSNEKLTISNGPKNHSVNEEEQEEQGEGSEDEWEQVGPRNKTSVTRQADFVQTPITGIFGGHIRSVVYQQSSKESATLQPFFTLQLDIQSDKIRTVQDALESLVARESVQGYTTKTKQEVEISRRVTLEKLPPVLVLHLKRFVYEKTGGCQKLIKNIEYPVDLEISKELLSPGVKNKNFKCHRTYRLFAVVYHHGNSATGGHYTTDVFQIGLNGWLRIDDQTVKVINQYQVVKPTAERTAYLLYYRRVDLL
UniProt P14859, sequence (P14859 whole entry): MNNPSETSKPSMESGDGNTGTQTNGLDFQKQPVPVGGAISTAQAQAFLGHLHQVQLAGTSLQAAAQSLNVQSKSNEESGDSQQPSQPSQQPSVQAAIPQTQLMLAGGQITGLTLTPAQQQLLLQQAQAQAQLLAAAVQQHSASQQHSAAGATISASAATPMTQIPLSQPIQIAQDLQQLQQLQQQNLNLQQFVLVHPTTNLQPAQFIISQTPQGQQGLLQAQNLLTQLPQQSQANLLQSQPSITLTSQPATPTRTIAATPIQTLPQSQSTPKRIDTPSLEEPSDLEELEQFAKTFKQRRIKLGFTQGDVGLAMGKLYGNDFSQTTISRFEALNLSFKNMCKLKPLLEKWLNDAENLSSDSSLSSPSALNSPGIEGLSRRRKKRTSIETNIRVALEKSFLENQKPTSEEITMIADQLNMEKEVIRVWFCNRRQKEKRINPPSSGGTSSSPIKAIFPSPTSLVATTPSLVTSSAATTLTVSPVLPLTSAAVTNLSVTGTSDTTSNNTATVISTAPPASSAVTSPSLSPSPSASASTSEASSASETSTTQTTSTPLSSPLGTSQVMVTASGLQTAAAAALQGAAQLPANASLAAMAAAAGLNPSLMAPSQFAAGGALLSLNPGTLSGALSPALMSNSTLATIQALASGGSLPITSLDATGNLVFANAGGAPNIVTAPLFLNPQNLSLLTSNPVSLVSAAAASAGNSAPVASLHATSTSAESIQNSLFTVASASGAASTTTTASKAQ
UniProt O14965, sequence (O14965 whole entry): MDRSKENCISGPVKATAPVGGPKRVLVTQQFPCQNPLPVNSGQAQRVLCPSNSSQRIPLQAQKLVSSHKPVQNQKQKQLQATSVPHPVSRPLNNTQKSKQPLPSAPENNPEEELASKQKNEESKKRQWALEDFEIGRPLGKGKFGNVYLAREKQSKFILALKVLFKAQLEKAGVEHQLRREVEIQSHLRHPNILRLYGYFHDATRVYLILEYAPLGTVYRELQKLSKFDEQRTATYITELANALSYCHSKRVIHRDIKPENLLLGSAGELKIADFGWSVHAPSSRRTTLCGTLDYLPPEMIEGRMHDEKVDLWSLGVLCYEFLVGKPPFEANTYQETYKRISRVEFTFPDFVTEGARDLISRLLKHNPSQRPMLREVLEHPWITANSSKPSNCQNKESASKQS
UniProt Q9H0C5, sequence (Q9H0C5 whole entry): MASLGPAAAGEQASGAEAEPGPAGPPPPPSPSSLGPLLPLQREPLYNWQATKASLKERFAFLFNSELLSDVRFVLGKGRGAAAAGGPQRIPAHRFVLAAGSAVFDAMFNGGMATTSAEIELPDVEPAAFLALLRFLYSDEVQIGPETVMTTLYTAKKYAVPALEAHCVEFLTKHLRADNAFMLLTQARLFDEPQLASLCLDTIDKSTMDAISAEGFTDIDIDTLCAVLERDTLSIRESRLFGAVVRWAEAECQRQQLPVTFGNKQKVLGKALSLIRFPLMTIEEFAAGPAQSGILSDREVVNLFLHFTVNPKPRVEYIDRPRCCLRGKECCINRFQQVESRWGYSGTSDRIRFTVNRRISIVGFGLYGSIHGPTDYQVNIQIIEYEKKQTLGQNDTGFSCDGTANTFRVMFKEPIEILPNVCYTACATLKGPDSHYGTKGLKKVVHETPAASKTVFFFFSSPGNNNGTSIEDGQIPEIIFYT
UniProt Q8IZP0, sequence (Q8IZP0 whole entry): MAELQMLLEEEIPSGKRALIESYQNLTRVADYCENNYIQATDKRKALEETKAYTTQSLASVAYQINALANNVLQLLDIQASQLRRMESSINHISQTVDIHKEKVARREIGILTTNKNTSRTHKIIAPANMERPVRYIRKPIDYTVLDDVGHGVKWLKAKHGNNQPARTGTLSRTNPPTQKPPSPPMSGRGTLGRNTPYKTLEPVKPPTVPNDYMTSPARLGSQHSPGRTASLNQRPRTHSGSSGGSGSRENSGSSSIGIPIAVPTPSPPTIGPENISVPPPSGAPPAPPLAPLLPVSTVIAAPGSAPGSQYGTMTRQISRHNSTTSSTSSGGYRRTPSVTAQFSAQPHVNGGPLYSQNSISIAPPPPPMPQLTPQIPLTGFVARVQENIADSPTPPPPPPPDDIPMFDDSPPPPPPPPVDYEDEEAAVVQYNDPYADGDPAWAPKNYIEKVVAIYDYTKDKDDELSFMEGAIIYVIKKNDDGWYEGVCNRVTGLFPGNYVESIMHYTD
UniProt P62316, sequence (P62316 whole entry): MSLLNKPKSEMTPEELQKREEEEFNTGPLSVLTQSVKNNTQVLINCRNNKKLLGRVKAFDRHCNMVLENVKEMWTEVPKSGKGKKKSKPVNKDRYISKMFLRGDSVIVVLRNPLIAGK

Target	thermal stability z-score [1, 3]	thermal stability z-score ([1]; arsenate co-treatment: none)	thermal stability z-score [2]
PHKG2 (UniProt P15735)	0.926	1.04	0.714
PKN1 (UniProt Q16512)	-0.436	-0.52	-0.513
THG1L (UniProt Q9NWX6)	0.578	0.85	0.463
ZDHHC6 (UniProt Q9H6R6)	0.211	-0.0578	-0.412
SEC63 (UniProt Q9UGP8)	-1.11	-0.484	-0.767
APPBP2 (UniProt Q92624)	-0.18	0.0712	-0.115
RAB1B (UniProt Q9H0U4)	0.238	0.549	0.196
SOWAHC (UniProt Q53LP3)	0.277	0.343	0.0878
ABI1 (UniProt Q8IZP0)	-0.715	-0.452	-0.656
TRIT1 (UniProt Q9H3H1)	-0.0696	-0.0898	0.0151
TGFBRAP1 (UniProt Q8WUH2)	0.0561	-0.0483	-0.0443
DHCR7 (UniProt Q9UBM7)	-0.283	-0.384	0.411
KCTD1 (UniProt Q719H9)	1.16	0.0871	-1.07
C10ORF76 (UniProt Q5T2E6)	-0.9	0.306	0.613
OSBPL1A (UniProt Q9BXW6)	-1.13	0.611	0.355
AK2 (UniProt P54819)	-0.717	-0.168	-0.84
MAGED2 (UniProt Q9UNF1)	-0.0801	0.24	0.741
CYB561A3 (UniProt Q8NBI2)	-0.299	-0.521	-0.949
GPN2 (UniProt Q9H9Y4)	0.0332	0.0213	-0.222
SNRPD2 (UniProt P62316)	1.08	0.689	1.15
BTBD1 (UniProt Q9H0C5)	-0.0349	0.00713	0.0567
GPRC5A (UniProt Q8NFJ5)	0.158	-0.194	0.816
MEAF6 (UniProt Q9HAF1)	0.687	-0.0341	-0.821
BAX (UniProt Q07812)	0.343	1.42	1.46

Target	thermal stability z-score [1, 3]	thermal stability z-score ([1]; arsenate co-treatment: none)	thermal stability z-score [2]
PDZD11 (UniProt Q5EBL8)	-0.0819	-0.0179	0.0963
SOD1 (UniProt P00441)	-0.57	-0.258	-0.236
PUF60 (UniProt Q9UHX1)	0.11	0.816	0.789
RHBDD2 (UniProt Q6NTF9)	-0.424	-0.384	-0.574
RPL8 (UniProt P62917)	0.0892	-0.22	-1.07
RNF181 (UniProt Q9P0P0)	1.27	1.68	0.00117
POU2F1 (UniProt P14859)	-0.0121	-0.303	0.0127
UBXN6 (UniProt Q9BZV1)	-0.186	-0.134	-0.12
UniProt H0YIV9|GATC	-0.219	-0.277	-0.0937
GOSR1 (UniProt O95249)	0.726	0.473	-0.0465
KATNBL1 (UniProt Q9H079)	0.226	0.62	0.427
CCDC127 (UniProt Q96BQ5)	-0.707	-0.371	-0.192
PRSS56 (UniProt P0CW18)	-3.63	-2.95	0.756
ESYT2 (UniProt A0FGR8)	-0.934	-0.479	-0.306
CCAR1 (UniProt Q8IX12)	0.657	0.27	-0.106
USP10 (UniProt Q14694)	0.103	0.045	-0.241
KLHL11 (UniProt Q9NVR0)	0.651	-0.0811	-0.421
C1QTNF6 (UniProt Q9BXI9)	-0.0299	0.334	0.794
VAV2 (UniProt P52735)	0.0635	0.172	0.835
CUX1	0.393	0.589	0.272
EIF3E (UniProt P60228)	-0.192	0.126	-0.113
NIPBL (UniProt Q6KC79)	-0.0211	-0.00358	-0.167
CSF2RA (UniProt P15509)	0.513	0.365	0.19
MTHFD1 (UniProt P11586)	0.565	0.406	-0.927

Target	thermal stability z-score [1, 3]	thermal stability z-score ([1]; arsenate co-treatment: none)	thermal stability z-score [2]
MARS (UniProt P56192)	-1.37	-0.604	0.22
AURKA (UniProt O14965)	-0.091	-0.269	-0.391
RPS15A (UniProt P62244)	0.437	0.494	-0.776
ZMYM2 (UniProt Q9UBW7)	-0.105	-0.0436	-0.802
STRIP1 (UniProt Q5VSL9)	0.978	1.5	1.36
RAB24 (UniProt Q969Q5)	0.205	0.12	-0.143
NDUFS4 (UniProt O43181)	0.511	0.477	0.201
TCOF1 (UniProt Q13428)	0.957	0.648	0.157
KPNA6 (UniProt O60684)	-0.328	-0.314	0.446
LSM12 (UniProt Q3MHD2)	-0.205	0.447	-0.27
TRIM28 (UniProt Q13263)	-0.138	0.0166	-1.49
KNOP1 (UniProt Q1ED39)	0.735	-0.755	0.831
WDR43 (UniProt Q15061)	-1.62	-1.02	-0.817
SEC24B (UniProt O95487)	-0.766	-0.328	0.116
MANBA (UniProt O00462)	-1.33	-1.4	-0.726
TFRC (UniProt P02786)	0.193	0.202	0.144
UBL7 (UniProt Q96S82)	0.396	0.433	0.168
TRAPPC10 (UniProt P48553)	0.191	0.411	0.381
SPG21 (UniProt Q9NZD8)	-0.161	0.136	0.634
RACK1 (UniProt P63244)	0.56	0.4	-0.92
ALDH16A1 (UniProt Q8IZ83)	-0.127	-0.311	-0.784
NCOA2 (UniProt Q15596)	-0.239	-0.0592	-0.284
STX3 (UniProt Q13277)	0.221	-0.315	-0.39
